Measured values taken from patent US5399553A, “Tricyclic compound or salts thereof, method for producing the same and anti-microbial agent containing the same” (Wakunaga Seiyaku Kabushiki Kaisha, priority 1990, dated 1995).
≈ marks a conversion by molar mass, not a printed value.

How the values were obtained:
[1] = test system: E. coli NIH JC-2 (IFO 12734); assay: Antimicrobial activity, minimum inhibitory concentration (MIC), E. coli NIH JC-2; assay type: cell-based; settings: Escherichia coli, IFO12734
Experimental: (§1) The minimum inhibitory concentration (MIC: μg/ml) of typical compounds represented by general formula (1) of the present invention is measured by the standard method of Japanese literature "Chemotherapy, Volume 29, No. 1, pp. 76-79, 1981". The results are shown in Table 1 in which compound numbers are the same as those indicated in Examples.

P. aeruginosa (IFO 3445) = assay: Antimicrobial activity, minimum inhibitory concentration (MIC), P. aeruginosa; assay type: cell-based; settings: Pseudomonas aeruginosa, IFO3445
Experimental: as §1

[2] = test system: S. aureus 209p (IFO 12732); assay: Antimicrobial activity, minimum inhibitory concentration (MIC), S. aureus 209p; assay type: cell-based; settings: Staphylococcus aureus
Experimental: as §1

[3] = Recovery in urine after oral administration (absorption and excretion); assay type: in vivo, male JCL-SD rats; settings: 20 mg/kg, rat, 20 mg/10 ml/kg in 0.5% methylcellulose, disk method, read-out: Excretion Rate In Urine
Experimental: (§2) The absorbability and excretion after oral administration of the compounds, of the present invention were tested by measuring recovery in urine and in bile as follows.
To a group of three male JCL-SD rats (6 weeks old) fasted overnight, a subject compound was prepared to 20 mg/10 ml/kg with 0.5% of methylcellulose solution and was orally administrated. The sampling was carried out by collecting urine in 0 to 6 hours and 6 to 24 hours. The concentration of the subject compound in the urine was examined by a disk method by using Bacillus subtilis ATCC 33 as a testing bacillus to obtain an excretion rate in urine for 24 hours.

[4] = Recovery in bile after oral administration (absorption and excretion); assay type: in vivo, rats; settings: 20 mg/kg, rat, prepared as for urine (20 mg/10 ml/kg), disk method, read-out: Excretion Rate In Bile
Experimental: as §2
A subject compound was prepared in the same manner as the recovery in urine and was orally administrated to the rats and bile was collected by using a polyethylene tube inserted into the choledochus in 24 hours. The concentration of the subject compound in the bile sample was examined in the same manner as the recovery in urine to obtain an excretion rate in bile for 24 hours.

Row | MIC [1] | MIC (P. aeruginosa (IFO 3445)) | MIC [2] | dose excreted at 24 h [3] | dose excreted at 24 h [4] | Compound
1 | 0.025 µg/mL (≈ 0.0694 µM) | 0.2 µg/mL (≈ 0.555 µM) | 0.1 µg/mL (≈ 0.277 µM) | 59.7% | 3.8% | C[C@H]1CN(c2c(F)cc3c(=O)c(C(=O)O)cn4c3c2CCN4C)C[C@H]1N (single isomer, unassigned) [Compound 30, 4-(cis (-) 3-Amino-4-methylpyrrolidin-1-yl)-5-fluoro-2,3-dihydro-1-methyl-7-oxo-1H,7H-pyrido[3,2,1-ij]cinnoline-8-carboxylic acid]
2 | 0.1 µg/mL (≈ 0.288 µM) | 0.78 µg/mL (≈ 2.25 µM) | 0.78 µg/mL (≈ 2.25 µM) | – | – | CN1CCc2c(OCC3(N)CC3)c(F)cc3c(=O)c(C(=O)O)cn1c23 [Compound 73]
